We go through one compound from US20250387359A1, “COMPOUNDS AND METHODS FOR THE TREATMENT OF PARASITIC INFECTIONS” (THE BOARD OF TRUSTEES OF THE UNIVERSITY OF ILLINOIS, priority 2019, published 2025).

This assay deals with recombinant CpLDH protein (Cryptosporidium parvum, UniProt Q9GT92, F198L/K295E/R251K). The assay is described as follows: biochemical. It counts as biochemical. As for the experimental part: Biochemical assays. The coding sequence of CpLDH was cloned from cDNA prepared from the AUCP-1 isolate of C. parvum, and the His-tagged CpLDH recombinant protein expressed in Escherichia coli, and purified in native form essentially as previously described (Int. J. Parasitol. 2017; 47(13), 867-874). Briefly, cDNA was prepared from total RNA extracted from the AUCP-1 isolate of C. parvum, and the coding sequencing of CpLDH (Genebank accession number AF274310.1) was PCR-amplified from the cDNA using a primer pair with a XhoI restriction site and a BamHI site. The PCR amplicon was cloned at the XhoI/BamHI site of the pET15b expression vector in-frame with the hexahistidine (His-tag) at the N-terminal and sequenced to confirm identity. The recombinant expression vector was transformed into protein expression E. coli BL21-CodonPlus-DE3-RIL (Stratagene). Transformed E. coli was cultured at 37° C. in Luria broth medium (supplemented with 100 μg/ml ampicillin and 34 μg/ml chloramphenicol) to an A600 of 0.8 followed by addition of 1 mM isopropyl-β-d-thiogalactopyranoside to induce protein expression. The expression E. coli was harvested and lysed under native conditions by sonicating in lysis buffer (50 mM NaH2PO4, 300 mM NaCl, 10 mM Imidazole, pH 8.0) containing a 1× EDTA-free protease inhibitor cocktail, 600 units benzonase and 30 kU lysozyme (EMD Millipore). The lysate was clarified by centrifugation and the His-tagged recombinant protein purified under native conditions by nickel-affinity chromatography according to the manufacturer's instructions (Novagen). The wash buffer used contained 50 mM NaH2PO4, 300 mM NaCl and 20 mM Imidazole, pH 8.0, while the elution buffer was composed of 50 mM NaH2PO4, 300 mM NaCl, 250 mM Imidazole, pH 8.0. The eluate was dialyzed using a buffer containing 5 mM Hepes-KOH (pH 7.8) and 0.5 mM DTT. The purity of the recombinant protein was determined by SDS/PAGE, and the concentration measured using a Qubit 3.0 fluorometer (Life technologies). […] On the other hand, the catalytic activity of CpLDH recombinant protein for the oxidation of lactate to pyruvate was determined by measuring the change in optical density of a 100 μl reaction mixture containing 100 mM lactate, 1 mM NAD^+, 100 mM Tris, pH 9.2, with varying concentrations of CpLDH recombinant protein at 25° C. […] In all assays, reaction mixtures without recombinant CpLDH protein were included as negative controls. All assays were performed in triplicate and repeated at least thrice. The change in optical density was measured every 15 seconds for a total of 2 minutes using a Spectra Max 384 Plus plate reader (Molecular Devices) at a wavelength of 340 nm.
Screening compounds for inhibitory activity against CpLDH. The chemical compounds were obtained from the National Cancer Institute/Developmental Therapeutics Program Open Chemical Repository. They consisted of a diverse set of compounds (n=27) reported previously (Int J Parasitol Drugs Drug Resist. 2016; 6(1), 44-53), and a Mechanistic Set IV compounds (n=800). The compounds were reconstituted in dimethyl sulfoxide (DMSO) as stock solutions. Just before use, aliquots of the stock solutions were diluted in sterile distilled water to generate working solutions, such that the final amount of DMSO added to the reaction mixtures was less than 1% (V/V). The compounds were tested for their inhibitory effect against the enzymatic activity of recombinant His-tagged CpLDH for catalyzing the reduction of pyruvate to lactate. […] Control reactions without recombinant CpLDH protein were included. Reactions were performed in triplicate and repeated at least thrice. The change in optical density was measured every 15 seconds for a total of 2 minutes using a Spectra Max 384 Plus plate reader (Molecular Devices) at a wavelength of 340 nm.

Chain of recombinant CpLDH protein (Q9GT92 whole entry F198L/K295E/R251K): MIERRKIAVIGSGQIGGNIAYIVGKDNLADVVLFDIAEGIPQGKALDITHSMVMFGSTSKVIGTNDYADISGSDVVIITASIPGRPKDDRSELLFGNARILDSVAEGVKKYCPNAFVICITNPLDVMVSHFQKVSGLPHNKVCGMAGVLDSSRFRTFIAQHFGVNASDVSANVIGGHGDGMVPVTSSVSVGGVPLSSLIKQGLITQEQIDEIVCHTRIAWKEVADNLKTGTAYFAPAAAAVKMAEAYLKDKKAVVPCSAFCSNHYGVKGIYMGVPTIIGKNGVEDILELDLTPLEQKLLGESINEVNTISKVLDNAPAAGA

The IC50 is the midpoint of a concentration-inhibition curve. Turning to `O=C1c2ccccc2C(=O)c2c(O)c(O)cc(O)c21` [NSC10447], the 50% inhibitory concentration (IC50) was found to be 46.3 µM. Also, the “effect on catalytic activity of recombinant CpLDH” value (20 μM compound, 10 mM pyruvate, 1 mM NADH) is on record as “significant (P<0.05) inhibitory effect”.
